# Data published in ChEMBL document CHEMBL1136769 (J Med Chem, 2003).
# Key:
# [1] = Inhibition of [3H]citalopram Binding to the Serotonin Transporter in Rhesus (Macaca mulatta) or Cynomolgus Monkey (Macaca fascicularis) Caudate-Putamen
# [2] = target: Sodium-dependent dopamine transporter (Macaca mulatta); experiment: Inhibition of [3H]WIN-35428 Binding to the Dopamine Transporter in Rhesus (Macaca mulatta) orCynomolgus Monkey (Macaca fascicularis) Caudate-Putamen
Structure (SMILES),IC50 [1],IC50 [2]
COC(=O)[C@@H](c1ccccc1)[C@@H]1CCCCO1,> 100 µM,3 µM
"COC(=O)[C@H](c1ccc(Cl)c(Cl)c1)[C@@H]1CCCCO1 (single isomer, unassigned; 15)",> 10 µM,–
"COC(=O)[C@H](c1ccc2ccccc2c1)[C@@H]1CCCCO1 (single isomer, unassigned)",10 µM,4 µM
COC(=O)[C@@H](c1ccc2ccccc2c1)[C@@H]1CCCCO1,1 µM,0.43 µM
N#CC(c1ccc(Cl)c(Cl)c1)C1CCCC1 (configuration not stated),10 µM,0.128 µM
COC(=O)C(c1ccccc1)C1CCCCN1 (racemic) [METHYLPHENIDATE],> 100 µM,–
COC(=O)[C@@H](c1ccc(Cl)c(Cl)c1)[C@@H]1CCCCO1 (stereo in doubt; 4c),2.18 µM,–
"COC(=O)[C@H](c1ccccc1)[C@@H]1CCCCO1 (single isomer, unassigned)",> 100 µM,13 µM
"COC(=O)[C@@H](c1ccc(Cl)c(Cl)c1)[C@H]1CCCCO1 (single isomer, unassigned)",7.8 µM,–
COC(=O)[C@H](c1ccc(Cl)c(Cl)c1)[C@H]1CCCCO1,> 10 µM,–
COC(=O)C(c1ccc(Cl)c(Cl)c1)C1CCCC1 (configuration not stated),7 µM,0.047 µM
"COC(=O)[C@H](c1ccc(Cl)c(Cl)c1)[C@@H]1CCCCO1 (single isomer, unassigned; 5c)",7.79 µM,–
COC(=O)C(c1ccc(Cl)c(Cl)c1)C1CCCCC1 (configuration not stated),12 µM,–
COC(=O)[C@@H](c1ccc(Cl)c(Cl)c1)[C@@H]1CCCCO1 (stereo in doubt; 12),1.66 µM,–
N#CC(c1ccc(Cl)c(Cl)c1)C1CCCCC1 (configuration not stated),8 µM,0.127 µM
